Experiment: xn = mol fraction of the nth substance listed
Conditions: 101 kPa

CCCCCCCCn1cc[n+](C)c1.O=[N+]([O-])[O-] + CCO
viscosity [mPa·s]
Conditions | 283.15 K | 288.15 K | 293.15 K | 298.15 K | 303.15 K | 308.15 K | 313.15 K | 318.15 K | 323.15 K | 328.15 K
x2 = 0.128 | 970 | 660 | 460 | 333 | 246 | 185 | 143 | – | 81.4 | –
x2 = 0.266 | 380 | 266 | 198 | 150 | 116 | 89.1 | 68.9 | 55.9 | 45.9 | 32
x2 = 0.357 | 216 | – | 124 | 97 | 73.4 | 58.4 | 48.3 | – | 33.3 | –
x2 = 0.455 | 102 | 76.2 | – | 47.5 | 38.3 | 31.2 | 25.8 | – | 18.59 | 14.08
x2 = 0.554 | – | 38.6 | 31.5 | 26.1 | – | 18.4 | 15.71 | 13.53 | 11.78 | –
x2 = 0.662 | 24.8 | 20.62 | 17.19 | 14.52 | 12.44 | 10.83 | 9.55 | 8.69 | 7.83 | 6.2
x2 = 0.767 | 11.64 | 9.86 | – | – | – | 5.72 | – | 4.46 | 3.99 | 3.27
x2 = 0.868 | 5.09 | – | 3.97 | 3.49 | 3.13 | 2.8 | 2.53 | 2.3 | 2.1 | 1.77

— a compilation of properties of binary mixtures (doi:10.1021/je901058s)
